Article PMC6424904, “The Utility of Efavirenz-based Prophylaxis Against HIV Infection. A Systems Pharmacological Analysis” (Frontiers in Pharmacology, 2019)
Like-named read-outs stand apart in the source and are kept apart here.

What was measured:
[1] = cited from earlier work; for typical population clearance value: 70kg; for typical population clearance value / relative change in apparent oral clearance vs reference genotype: ref Dickinson et al. (2015)
[2] = no reference given; cited from earlier work
[3] = in vivo; cited from earlier work
[4] = test system: HIV Y181C mutant; parameters: method as in Sampah et al., 2011; conditions: ref Sampah et al., 2011; cited from earlier work
[5] = test system: wild-type HIV; parameters: method as in Shen et al., 2008; conditions: ref Shen et al., 2008, cited from earlier work
[6] = test system: plasma proteins (human serum albumin and α-1-acid glycoprotein); conditions: cited from earlier work; for unbound fraction in human plasma (fu): ref Almond et al., 2005, Fayet et al., 2008, Burhenne et al., 2010, Avery et al., 2011, 2013a
[7] = test system: HIV G190S mutant; parameters: method as in Sampah et al., 2011; conditions: ref Sampah et al., 2011; cited from earlier work
[8] = human, in vivo
Text: In our work, we modeled metabolic autoinduction similarly to the model proposed by Zhu et al. ([2009]). We defined the term α as the ratio of the mean clearance on day 1 to the mean clearance at steady state (after autoinduction). […] For each virtual patient generated from the population pharmacokinetic model, the individual clearance at steady state was available and the clearance at day 1 was computed using CLi,t0 = α·CLi, SS. Zhu et al. ([2009]) proposed a model for time-dependent autoinduction that we used herein
(4) CLi(t)=CLi,t0+(CLi,SS-CLi,t0)·t-t0/(t-t0)+T50
where CLi(t) is the individual clearance rate at the time t and t0 is the time of the first EFV dose. CLi(0) and CLi, SS represent the clearance rates at day 1 and at steady state.

[9] = cited from earlier work
[10] = in vivo; cited from earlier work; remark: listed apart in the source
[11] = test system: HIV K103N mutant; parameters: method as in Sampah et al., 2011; conditions: ref Sampah et al., 2011; cited from earlier work
[12] = parameters: method as in Mukonzo et al., 2009; conditions: healthy men, ref Mukonzo et al., 2009, cited from earlier work
[13] = genotype GG/TC or CC/CA or AA/CC
[14] = genotype GG/TC or CC/CA or AA/CT
[15] = genotype GG/TC or CC/CC/CT or TT
[16] = genotype GT/TC or CC/CA or AA/CC
[17] = genotype GT/TC or CC/CC/CT or TT

O=C1Nc2ccc(Cl)cc2[C@@](C#CC2CC2)(C(F)(F)F)O1 [efavirenz]
typical population clearance value ([1]; Missing genotype): 8.7 L/h | typical population clearance value [1, 13]: 9.0 L/h | typical population clearance value [1, 14]: 11.4 L/h | typical population clearance value ([1]; genotype GG/TC or CC/CC/CC): 8.7 L/h | typical population clearance value [1, 15]: 3.5 L/h | typical population clearance value [1, 16]: 2.2 L/h | typical population clearance value ([1]; genotype GT/TC or CC/CC/CC): 5.0 L/h | typical population clearance value [1, 17]: 4.6 L/h | typical population clearance value ([1]; genotype GT/TT/CA or AA/CC): 8.2 L/h | typical population clearance value ([1]; genotype GT/TT/CA or AA/CT): 8.4 L/h | typical population clearance value ([1]; genotype GT/TT/CC/CC): 8.9 L/h | typical population clearance value ([1]; genotype GT/TT/CC/CT or TT): 8.1 L/h | typical population clearance value ([1]; genotype TT/TT/CA or AA/CC): 5.2 L/h | typical population clearance value ([1]; genotype TT/TT/CA or AA/CT): 8.9 L/h | typical population clearance value ([1]; genotype TT/TT/CC/CC): 4.0 L/h | typical population clearance value ([1]; genotype TT/TT/CC/CT or TT): 4.1 L/h | relative change in apparent oral clearance vs reference genotype ([1]; Missing genotype): 0.73 | relative change in apparent oral clearance vs reference genotype [1, 13]: 0.75 | relative change in apparent oral clearance vs reference genotype [1, 14]: 0.96 | relative change in apparent oral clearance vs reference genotype ([1]; genotype GG/TC or CC/CC/CC): 0.73 | relative change in apparent oral clearance vs reference genotype [1, 15]: 0.30 | relative change in apparent oral clearance vs reference genotype [1, 16]: 0.18 | relative change in apparent oral clearance vs reference genotype ([1]; genotype GT/TC or CC/CC/CC): 0.42 | relative change in apparent oral clearance vs reference genotype [1, 17]: 0.39 | relative change in apparent oral clearance vs reference genotype ([1]; genotype GT/TT/CA or AA/CC): 0.69 | relative change in apparent oral clearance vs reference genotype ([1]; genotype GT/TT/CA or AA/CT): 0.71 | relative change in apparent oral clearance vs reference genotype ([1]; genotype GT/TT/CC/CC): 0.75 | relative change in apparent oral clearance vs reference genotype ([1]; genotype GT/TT/CC/CT or TT): 0.68 | relative change in apparent oral clearance vs reference genotype ([1]; genotype TT/TT/CA or AA/CC): 0.44 | relative change in apparent oral clearance vs reference genotype ([1]; genotype TT/TT/CA or AA/CT): 0.75 | relative change in apparent oral clearance vs reference genotype ([1]; genotype TT/TT/CC/CC): 0.33 | relative change in apparent oral clearance vs reference genotype ([1]; genotype TT/TT/CC/CT or TT): 0.34 | absorption rate constant ka ([1]; in vivo): 0.6 h⁻¹ | interindividual variability CVIIV(CLss/Fbio) ([1]; in vivo): 36.6% | interoccasion variability CVIOV(CLss/Fbio) ([1]; in vivo): 21.0% | apparent volume of distribution V/Fbio ([1]; population mean, 70 kg individual, ref Dickinson et al., 2015): 282 L | apparent oral clearance CL/Fbio (CLss/Fbio) ([1]; population value, 70 kg individual, reference (wild-type) CYP genotype, after autoinduction, ref Dickinson et al., 2015): 11.9 L/h | LogP [2]: ≈ 4 | cervical fluid-to-plasma ratio of total concentrations [3]: 0.4% | hill coefficient m as multiple of m(wt) [4]: 0.9·m(wt) | IC50 ([5]; corrected for protein binding): 5.4 nM | hill coefficient m (± sd) [5]: 1.69 (±0.08) | unbound fraction in human plasma (fu) [6]: ≤ 1% | unbound fraction in human plasma (fu) ([6]; listed as EFV): < 1% | fu,plasma used for IC50 correction ([6]; value used to obtain IC50plasma): 0.2% | hill coefficient m as multiple of m(wt) [7]: 0.6·m(wt) | α, ratio of mean clearance on day 1 to mean clearance at steady state [8]: 0.58 | T50, time where the clearance rate reaches half of its steady-state value ([9]; in vivo): 245 h | average clearance on the first day ([9]; ref Zhu et al., 2009): 5.76 L/h | semen-to-plasma ratio of total EFV concentrations [10]: 3.4–5% | hill coefficient m as multiple of m(wt) [11]: 0.83·m(wt) | half life ([12]; slow metabolisers): 54.7 h | half life ([12]; wild type): 37.3 h
